pKd: −log10 of the molar value.
Experiments:
[1] = target: T1, PLCγ1^K491D (Homo sapiens, UniProt P19174, I813T/K491D); assay: Microscale thermophoresis (MST) binding, K491D variant; conditions: read-out: estimated Kd, MST, PLCγ1^K491D
T1 construct: made in house; host or cells: Escherichia coli T7 Express lysY/Iq
T1 sequence (P19174 1-1291 isoform P19174-2 K491D/I813T): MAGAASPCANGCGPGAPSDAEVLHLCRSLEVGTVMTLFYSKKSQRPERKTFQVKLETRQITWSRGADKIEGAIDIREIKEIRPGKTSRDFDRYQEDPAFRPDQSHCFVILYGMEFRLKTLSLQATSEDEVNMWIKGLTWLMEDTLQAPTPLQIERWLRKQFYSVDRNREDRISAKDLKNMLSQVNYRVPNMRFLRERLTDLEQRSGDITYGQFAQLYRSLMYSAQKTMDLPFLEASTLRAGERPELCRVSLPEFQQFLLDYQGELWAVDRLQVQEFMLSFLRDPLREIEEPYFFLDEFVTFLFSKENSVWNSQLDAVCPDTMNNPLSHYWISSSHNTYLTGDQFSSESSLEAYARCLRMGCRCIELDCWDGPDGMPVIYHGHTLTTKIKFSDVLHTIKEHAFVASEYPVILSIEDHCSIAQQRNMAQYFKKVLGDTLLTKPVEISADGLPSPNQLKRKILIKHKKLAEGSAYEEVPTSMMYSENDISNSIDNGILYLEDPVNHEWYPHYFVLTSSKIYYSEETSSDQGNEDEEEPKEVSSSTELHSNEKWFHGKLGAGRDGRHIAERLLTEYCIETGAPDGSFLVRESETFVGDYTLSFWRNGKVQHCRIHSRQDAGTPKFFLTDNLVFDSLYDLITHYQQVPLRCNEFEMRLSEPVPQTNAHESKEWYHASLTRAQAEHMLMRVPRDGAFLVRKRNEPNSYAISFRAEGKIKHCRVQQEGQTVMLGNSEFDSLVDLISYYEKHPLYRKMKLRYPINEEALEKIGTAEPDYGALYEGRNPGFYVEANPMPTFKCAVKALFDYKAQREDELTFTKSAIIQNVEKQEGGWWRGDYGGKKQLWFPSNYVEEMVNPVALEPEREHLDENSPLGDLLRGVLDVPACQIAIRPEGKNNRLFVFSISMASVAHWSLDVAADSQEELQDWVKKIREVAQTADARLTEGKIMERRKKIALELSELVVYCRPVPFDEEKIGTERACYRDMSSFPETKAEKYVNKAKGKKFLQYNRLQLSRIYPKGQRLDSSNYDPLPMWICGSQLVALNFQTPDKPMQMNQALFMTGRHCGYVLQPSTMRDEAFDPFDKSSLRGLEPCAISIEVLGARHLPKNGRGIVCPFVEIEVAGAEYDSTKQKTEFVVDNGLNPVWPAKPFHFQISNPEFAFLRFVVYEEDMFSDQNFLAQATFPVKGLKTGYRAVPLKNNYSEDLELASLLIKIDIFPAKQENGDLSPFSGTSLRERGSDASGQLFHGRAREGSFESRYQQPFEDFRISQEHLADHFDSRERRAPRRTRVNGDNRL
Method: Proteins were diluted to 200 nM in MST buffer [50 mM Hepes.KOH, 70 mM KCl, 5% (v/v) glycerol, 0.05% (v/v) Tween-20, 2 mM DTT (pH 7.5)] and subsequently labelled by adding an equal volume of 100 nM 2nd generation RED-Tris-NTA labelling dye and incubating for 30 minutes. […] An equal volume of labelled protein was added to each ligand concentration and the mixture taken up into a standard MST capillary. Samples were measured in a Monolith NT.115 pico instrument (Nanotemper) using the Nano-RED channel. Excitation power was set to 5% and MST power set to high. All experiments were performed at 25°C. All data were analysed using the manufacturer’s MO.Control software and repeated at least three times with representative experiments shown.

[2] = tested on: PLCγ1^D1165H; assay: PLC activity assay 1 (A1), PLCγ1 D1165H variant; type: biochemical, human
Method: The effect of nucleotide inhibition on PLC activity was measured using either a membrane-based assay with the fluorescent substrate (XY-69) incorporated into liposomes or using a small soluble substrate, Aldol 518 myo-inositol-1-phosphate (Aldol). Both methods utilised the same PLC assay buffer [20 mM Hepes-KOH, 70 mM KCl, 3 mM EGTA, 2.97 mM CaCl2, 2 mM TCEP and fatty acid-free bovine serum albumin (FAF-BSA; 50 μg/ml) (pH 7.5)]. Both assays were performed in low volume black 384-well plates (Greiner Bio-One), were composed of a final assay volume of 20 μl and were monitored in a Clariostar plate reader (BMG Labtech). […] The excitation and emission wavelengths were 588–15 and 642–20, respectively.
A CLARIOstar plate reader (BMG Labtech) was used to measure the production of the fluorescent product. The excitation and emission wavelengths were 485–15 and 520–20, respectively. Each experiment was performed in at least triplicate; in many cases, nine-fold replicates were generated. The enzyme progress curves were plotted for each concentration of nucleotide using Graphpad Prism software. The initial linear rate of product generation was calculated and converted to a % inhibition when compared with the rate of PLC activity in the absence of nucleotide. […]

Row | pKd [1] | IC50 relative to PLCγ1^wt (fold higher) [2] | SMILES
1 | ~3.15 |  | Nc1ncnc2c1ncn2[C@@H]1O[C@H](COP(=O)(O)OP(=O)(O)OP(=O)(O)O)[C@@H](O)[C@H]1O [ATP]
2 | 2.70 to 3.00 | 5–7 fold | Nc1ncnc2c1ncn2[C@@H]1O[C@H](COP(=O)(O)OP(=O)(O)O)[C@@H](O)[C@H]1O [ADP]
